In assay [1] the test system is full length SMN2 minigene mRNA (HEK293H cells stably transfected with SMN2-A minigene). The experiment in a line: SMN2 minigene mRNA splicing RT-qPCR assay in cultured cells. Type of assay: cell-based. The settings on record: Homo sapiens, HEK293-H, 24 hours, 7-point concentration curve, 1.5-fold increase relative to vehicle, read-out: EC1.5x minigene (EC1.5x concentration for production of full length SMN2 minigene mRNA). From the text:
The term “EC1.5x concentration for production of full length SMN2 minigene mRNA” (or “EC1.5x minigene”) is defined as that concentration of test compound that 1 s effective m increasing the amount of full length SMN2 minigene mRNA to a level 1.5-fold greater relative to that in vehicle-treated cells.
The reverse transcription-quantitative PCR-based (RT-qPCR) assay is used to quantify the level of the full length SMN2 minigene (referred to herein by the term “FL SMN2mini”) mRNA containing SMN2 exon 7 in a HEK293H cell line stably transfected with said minigene and treated with a test compound. Materials used and respective sources are listed below in Table 1.
The SMN2-A minigene construct was prepared as described in International Patent Application WO2009/151546A1 page 145 paragraph [00400] to page 147 paragraph [00412](incl. FIG. 1 and FIG. 3 therein).
HEK293H cells stably transfected with the SMN2-A minigene construct (10,000 cells/well) are seeded in 200 μL of cell culture medium (DMEM plus 10% FBS, with 200 μg/mL hygromycin) in 96-well flat-bottom plates and the plate is immediately swirled to ensure proper dispersal of cells and the formation of an even monolayer of cells. Cells are allowed to attach for 6 hours. Test compounds are serially diluted 3.16-fold in 100% DMSO to generate a 7-point concentration curve. A solution of test compound (1 μL, 200× in DMSO) is added to each cell-containing well and the plate is incubated for 24 hours in a cell culture incubator (37° C., 5% CO2, 100% relative humidity). 2 replicates are prepared for each test compound concentration. The cells are then lysed in the Cells-To-Ct lysis buffer and the lysate is stored at −80° C.
Full length SMN2-A minigene and GAPDH mRNA are quantified using the primers and probes referenced in Table 2. Primer SMN Forward A (SEQ ID NO.1) hybridizes to a nucleotide sequence in exon 7 (nucleotide 22 to nucleotide 40), primer SMN Reverse A (SEQ ID NO.2) hybridizes to a nucleotide sequence in the coding sequence of Firefly luciferase, SMN Probe A (SEQ ID NO.3) hybridizes to a nucleotide sequence in exon 7 (nucleotide 50 to nucleotide 54) and exon 8 (nucleotide 1 to nucleotide 21). The combination of these three oligonucleotides detects only SMN1 or SMN2 minigenes (RT-qPCR) and will not detect endogenous SMN1 or SMN2 genes.
The SMN forward and reverse primers are used at final concentrations of 0.4 μM. The SMN probe is used at a final concentration of 0.15 μM. The GAPDH primers are used at final concentrations of 0.2 μM and the probe at 0.15 μM.
The SMN2-minigene GAPDH mix (15 μL total volume) is prepared by combining 7.5 μL of 2×RT-PCR buffer, 0.4 μL of 25×RT-PCR enzyme mix, 0.75 μL of 20×GAPDH primer-probe mix, 4.0075 μL of water, 2 μL of 10-fold diluted cell lysate, 0.06 μL of 100 µM SMN forward primer, 0.06 μL of 100 μM SMN reverse primer, and 0.225 μL of 100 μM SMN probe.
PCR is carried out at the following temperatures for the indicated time: Step 1: 48° C. (15 min); Step 2: 95° C. (10 min); Step 3: 95° C. (15 sec); Step 4: 60° C. (1 min); then repeat Steps 3 and 4 for a total of 40 cycles.
Each reaction mixture contains both SMN2-A minigene and GAPDH primers/probe sets (multiplex design), allowing simultaneous measurement of the levels of two transcripts.
The increase in the abundance of the FL SMN2mini mRNA relative to that in cells treated with vehicle control is determined from real-time PCR data using a modified ΔΔCt method (as described in Livak and Schmittgen, Methods, 2001, 25:402-8). The amplification efficiency E is calculated from the slope of the amplification curve for FL SMN2mini and GAPDH individually. The abundance of FL SMN2mini and GAPDH mRNA are then calculated as (1+E)^−Ct, where Ct is the threshold value for each amplicon. The abundance of FL SMN2mini mRNA is normalized to GAPDH mRNA abundance. […]

In assay [2] the test system is SMN protein in SMA patient fibroblast cells (GM03813). Kind of assay: SMN protein assay in cultured cells (SMN HTRF). Type of assay: cell-based. The conditions noted are these: Homo sapiens, SMA Type 1 patient fibroblasts, 48 hours; for EC (1.5-fold): 7-point concentration curve, 1.5 times SMN protein vs vehicle, read-out: EC1.5x SMN protein (EC1.5x concentration for SMN protein expression); for maximal fold induction: fold increase relative to vehicle control, read-out: max. fold increase of SMN protein. From the text:
The term “EC1.5x concentration for SMN protein expression” (or “EC1.5x SMN protein”) is defined as that concentration of test compound that is effective in producing 1.5 times the amount of SMN protein in an SMA patient fibroblast cell compared to the amount produced from the vehicle control.
The SMN HTRF (homogeneous time resolved fluorescence) assay is used to quantify the level of SMN protein in SMA patient fibroblast cells treated with test compounds. Materials used and respective sources are listed below in Table 4.
Cells are thawed and cultured in DMEM-10% FBS for 72 hours. Cells are trypsinized, counted and re-suspended to a concentration of 25,000 cells/mL in DMEM-10% FBS. The cell suspensions are plated at 5,000 cells per well in a 96 well microtiter plate and incubated for 3 to […]. Test compounds are serially diluted 3.16-fold in 100% DMSO to generate a 7-point concentration curve. 1 μL of test compound solution is transferred to cell-containing wells and cells are incubated for 48 hours in a cell culture incubator (37° C., 5% CO2, […]). Triplicate samples are set up for each test compound concentration. After 48 hours, the supernatant is removed from the wells and 25 μL of the RIPA lysis buffer, containing protease inhibitors, is added to the wells and incubated with shaking at room temperature for 1 hour. 25 μL of the diluent is added and then 35 μL of the resulting lysate is transferred to a 384-well plate, where each well contains 5 μL of the antibody solution (1:100 dilution of anti-SMN d2 and anti-SMN kryptate in SMN reconstitution buffer). The plate is centrifuged for 1 minute to bring the solution to the bottom of the wells, then incubated overnight at room temperature. Fluorescence for each well of the plate at 665 nm and 620 nm is measured on an EnVision multilabel plate reader (Perkin-Elmer).
The normalized fluorescence signal is calculated for each sample, Blank and vehicle control well by dividing the signal at 665 nm by the signal at 620 nm. Normalizing the signal accounts for possible fluorescence quenching due to the matrix effect of the lysate. The ΔF value (a measurement of SMN protein abundance as a percent value) for each sample well is calculated by subtracting the normalized average fluorescence for the Blank control wells from the normalized fluorescence for each sample well, then dividing this difference by the normalized average fluorescence for the Blank control wells and multiplying the resulting value by 100. The ΔF value for each sample well represents the SMN protein abundance from test compound-treated samples. The ΔF value for each sample well is divided by the ΔF value for the vehicle control wells to calculate the fold increase in SMN protein abundance relative to the vehicle control. Table 5 provides EC1.5x concentrations for SMN protein expression that was obtained from the 7-point concentration data generated according to the above procedure for particular compounds of the present invention.
Table 6 provides the maximum fold increase of SMN protein that was obtained from the 7-point concentration data generated according to the above procedure for particular compounds of the present invention
On the technique in general: TR-FRET usually uses a lanthanide donor and a delayed reading to cut background.

The source of these data is patent publication US11827646B2, “Compounds for treating spinal muscular atrophy” (Hoffmann-La Roche Inc., priority 2014, dated 2023).

`Cc1cn2nc(-c3cc(=O)n4cc(N5CCN(C)CC5)ccc4n3)ccc2n1` [Example 1, 2-(2-methylimidazo[1,2-b]pyridazin-6-yl)-7-(4-methylpiperazin-1-yl)pyrido[1,2-a]pyrimidin-4-one]: the EC (1.5-fold) in assay [1] is 0.0035 µM. Moreover, in assay [2], the EC (1.5-fold) worked out at 0.0108 µM and the maximal fold induction came to 1.84.

As for `Cc1cn2nc(-c3cc(=O)n4cc(N5CCN6CCC[C@@H]6C5)ccc4n3)ccc2n1` [Example 2, 7-[(8aR)-3,4,6,7,8,8a-hexahydro-1H-pyrrolo[1,2-a]pyrazin-2-yl]-2-(2-methylimidazo[1,2-b]pyridazin-6-yl)pyrido[1,2-a]pyrimidin-4-one], the EC (1.5-fold) in assay [1] was determined as 0.0038 µM. Moreover, in assay [2], the EC (1.5-fold) is 0.0198 µM and the maximal fold induction came to 1.76.

On to `Cc1cn2nc(-c3cc(=O)n4cc(N5CCN6CCC[C@H]6C5)ccc4n3)cc(C)c2n1` [Example 3, 7-[(8aS)-3,4,6,7,8,8a-hexahydro-1H-pyrrolo[1,2-a]pyrazin-2-yl]-2-(2,8-dimethylimidazo[1,2-b]pyridazin-6-yl)pyrido[1,2-a]pyrimidin-4-one], for which the figures for the EC (1.5-fold) in assay [1] and in assay [2] were 0.0032 µM and 0.0256 µM, respectively. Moreover, the maximal fold induction in assay [2] was determined as 1.81.

Consider `Cc1cn2nc(-c3cc(=O)n4cc(N5CCN6CCC[C@@H]6C5)ccc4n3)cc(C)c2n1` [Example 4, 7-[(8aR)-3,4,6,7,8,8a-hexahydro-1H-pyrrolo[1,2-a]pyrazin-2-yl]-2-(2,8-dimethylimidazo[1,2-b]pyridazin-6-yl)pyrido[1,2-a]pyrimidin-4-one], for which the EC (1.5-fold) is 0.0018 µM in assay [1] and 0.0157 µM in assay [2]. Moreover, in assay [2], the maximal fold induction turned out to be 1.76.

For `Cc1cn2nc(-c3cc(=O)n4cc(N5CCN6CCC[C@@]6(C)C5)ccc4n3)cc(C)c2n1` [Example 5, 7-[(8aS)-8a-methyl-1,3,4,6,7,8-hexahydropyrrolo[1,2-a]pyrazin-2-yl]-2-(2,8-dimethylimidazo[1,2-b]pyridazin-6-yl)pyrido[1,2-a]pyrimidin-4-one], the EC (1.5-fold) in assay [1] turned out to be 0.0006 µM; in assay [2] it was 0.0041 µM. Besides, in assay [2], the maximal fold induction was found to be 1.71.

Consider `Cc1cn2nc(-c3cc(=O)n4cc(N5CCN6CCC[C@]6(C)C5)ccc4n3)cc(C)c2n1` [Example 6, 7-[(8aR)-8a-methyl-1,3,4,6,7,8-hexahydropyrrolo[1,2-a]pyrazin-2-yl]-2-(2,8-dimethylimidazo[1,2-b]pyridazin-6-yl)pyrido[1,2-a]pyrimidin-4-one], for which the EC (1.5-fold) turned out to be 0.0028 µM in assay [1] and 0.011 µM in assay [2]. Further, the maximal fold induction in assay [2] stood at 1.84.

Regarding `Cc1cn2nc(-c3cc(=O)n4cc(N5C[C@@H](C)N[C@@H](C)C5)ccc4n3)cc(C)c2n1` [Example 7, 2-(2,8-dimethylimidazo[1,2-b]pyridazin-6-yl)-7-[(3S,5R)-3,5-dimethylpiperazin-1-yl]pyrido[1,2-a]pyrimidin-4-one], the figures for the EC (1.5-fold) in assay [1] and in assay [2] were 0.0037 µM and 0.0155 µM, respectively. Besides, the maximal fold induction in assay [2] is 1.76.

Consider `Cc1cn2nc(-c3cc(=O)n4cc(N5CCN[C@@H](C)C5)ccc4n3)cc(C)c2n1` [Example 8, 2-(2,8-dimethylimidazo[1,2-b]pyridazin-6-yl)-7-[(3S)-3-methylpiperazin-1-yl]pyrido[1,2-a]pyrimidin-4-one], for which the EC (1.5-fold) in assay [1] was 0.0003 µM; in assay [2], 0.0059 µM. Also, in assay [2], the maximal fold induction came to 1.85.

Regarding `Cc1cn2nc(-c3cc(=O)n4cc(N5CCN[C@H](C)C5)ccc4n3)cc(C)c2n1` [Example 9, 2-(2,8-dimethylimidazo[1,2-b]pyridazin-6-yl)-7-[(3R)-3-methylpiperazin-1-yl]pyrido[1,2-a]pyrimidin-4-one], the EC (1.5-fold) in assay [1] is 0.0001 µM. For the same compound, in assay [2], the EC (1.5-fold) was 0.0025 µM and the maximal fold induction came out at 1.92.

For `Cc1cn2nc(-c3cc(=O)n4cc(N5CCNC6(CC6)C5)ccc4n3)ccc2n1` [Example 19, 7-(4,7-diazaspiro[2.5]octan-7-yl)-2-(2-methylimidazo[1,2-b]pyridazin-6-yl)pyrido[1,2-a]pyrimidin-4-one], in assay [2], the EC (1.5-fold) was determined as 0.0298 µM and the maximal fold induction came to 1.83.

On to `Cc1cn2nc(-c3cc(=O)n4cc(N5C[C@@H](C)N[C@@H](C)C5)cc(C)c4n3)cc(C)c2n1` [Example 26, 2-(2,8-dimethylimidazo[1,2-b]pyridazin-6-yl)-7-[(3R,5S)-3,5-dimethylpiperazin-1-yl]-9-methyl-pyrido[1,2-a]pyrimidin-4-one], for which, in assay [2], the EC (1.5-fold) came to 1.23 µM and the maximal fold induction came out at 1.52.

Turning to `Cc1cn2nc(-c3cc(=O)n4cc(N5CCNC(C)(C)C5)cc(C)c4n3)cc(C)c2n1` [Example 27, 2-(2,8-dimethylimidazo[1,2-b]pyridazin-6-yl)-7-(3,3-dimethylpiperazin-1-yl)-9-methyl-pyrido[1,2-a]pyrimidin-4-one], in assay [2], the EC (1.5-fold) came out at 0.127 µM and the maximal fold induction was determined as 1.57.
